Measurements as given in US7928210B2, “Nucleoside based proliferation imaging markers” (Siemens Medical Solutions USA, Inc., priority 2007, dated 2011).
“Also recorded” adds a separate entry of the source.

Assays:
[1] = system: A431 cell line (human skin epidermoid carcinoma, high S phase); test: Cancer cell uptake, A431; conditions: (i) A431
[2] = system: A172 cell line (human brain glioblastoma, low S phase); test: Cancer cell uptake, A172; conditions: for Cell Uptake: (iii) A172; for Uptake and intracellular retention: A172 cells in vitro
[3] = system: SK-N-MC cell line (human brain neuroepithelioma, high S phase); test: Cancer cell uptake, SK-N-MC; conditions: for Cell Uptake: (ii) SK-N-MC; for Uptake and intracellular retention: SK-N-MC cells in vitro
[4] = target: T1, human thymidine kinase 1 (hTK1) (Homo sapiens, UniProt P04183); test: hTK-1 kinase phosphorylation, metabolites monitored by LC/MS-SIM; conditions: in vitro
T1 sequence (P04183 1-234): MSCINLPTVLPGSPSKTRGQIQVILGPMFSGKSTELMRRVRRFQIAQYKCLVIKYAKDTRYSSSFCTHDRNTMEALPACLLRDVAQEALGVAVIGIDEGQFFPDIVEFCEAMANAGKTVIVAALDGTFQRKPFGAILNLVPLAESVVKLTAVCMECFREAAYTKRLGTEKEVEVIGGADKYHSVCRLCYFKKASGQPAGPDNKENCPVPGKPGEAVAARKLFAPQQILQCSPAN

[5] = system: A431 tumor bearing mice; test: In vivo imaging of A431 tumor bearing mice (clearance, tumor localization, tumor ratios); parameters: species or system mouse; conditions: for Type of Clearance / Localization within the tumor: in vivo (rodents), A431 tumor; for Ratio T/B: tumor to background, p.i. 45 min; for Ratio T/M: tumor to muscle
[6] = cited from earlier work
[7] = system: Balb/3T12-3 cells; test: Cell uptake, Balb/3T12-3; conditions: for Cell Uptake: (iv) Balb/3T12-3; for Uptake and intracellular retention: BalB/3T12-3 cells in vitro
[8] = system: DNA; test: Incorporation into DNA compared against FMAU; format: cell-based; conditions: data not shown
[9] = system: normal mouse liver cells (AML12); test: Liver cell uptake by LC/MS-SIM, normal mouse liver cells; format: cell-based; conditions: AML12, in vitro
Text: (§1) The mouse liver cell uptake of a small number of thymidine analogs was higher than FLT and thymidine, and the levels of human liver cell uptake were similar to FLT and thymidine. Ideally, low levels of liver cell uptake help increase the tumor to background ratios in the PET image. Furthermore, we examined the metabolic profile of the leads (Ta-1, Ta-4, and Ta-10) in vitro using normal mouse liver cell line (AML12) and human liver cancer cell line (HepG2).

[10] = system: human liver cancer cells (HepG2); test: Liver cell uptake by LC/MS-SIM, human liver cancer cells; format: cell-based; conditions: HepG2, in vitro
Text: as §1

SMILES	Cell Uptake [1]	Cell Uptake [2]	Cell Uptake [3]	Pi % (phosphorylation percentage) [4]	Type of Clearance [5]	Localization within the tumor [5]	other results
Cc1cn([C@H]2CC(F)[C@@H](CO)O2)c(=O)n(CCF)c1=O (stereo partly shown) [Ta-4F]	0.075	0.067	0.063	9.2%			
Cc1cn([C@H]2CC(F)[C@@H](CO)O2)c(=O)[nH]c1=O (stereo partly shown) [FLT, 3′-[^18F]fluoro-3′-deoxythymidine, reference compound]				31%	Clear through renal system; localize within the tumor		Injected dose per gram in tumors, on average ([6]; background section): 5%
Cc1cn([C@H]2CC(O)[C@@H](CO)O2)c(=O)n(Cc2cn([C@H](C(=O)NCc3ccccc3)C(C)C)nn2)c1=O (stereo partly shown) [Ta-6233]				71.5%			
O=c1[nH]c(=O)n([C@H]2CC(O)[C@@H](CO)O2)cc1-c1cn(CCF)nn1 (stereo partly shown) [FLT-Click-3]				0%	Clear through the gut; but did not localize within the tumor		Ratio T/B [5]: 1.1 (T/B; p.i. 45 min)
Cc1cn([C@H]2CC(O)[C@@H](CO)O2)c(=O)n(Cc2cn([C@H](C(=O)NCc3cc(F)ccn3)C(C)C)nn2)c1=O (stereo partly shown) [Ta-3]	0.004	0.093	0.059	25.5%	large localization of the tracer in the gut and clearance through the bowels; also recorded: Clear through the bowels; localize mainly in the gut		Cell Uptake [7]: 0.117
Cc1cn([C@H]2CC(F)[C@@H](CO)O2)c(=O)n(CCF)c1=O (stereo partly shown) [Ta-6]	0.023	0.004	0.007	4.5%			
Cc1cn([C@@H]2O[C@H](CO)C(O)C2OCCF)c(=O)[nH]c1=O (stereo partly shown) [Ta-7]	0.027	0.004	0.083	5.6%	Clear through the gut/ hepatobiliary system; localize mainly in the gut; a small percentage of the inject dose penetrate and localize within the tumor	≤ 1 % ID/g	Ratio T/M ([5]; time not given): 1.05 (T/M)
Cc1cn([C@H]2CC(O)[C@@H](CO)O2)c(=O)n(Cc2cn(Cc3cc(F)ccn3)nn2)c1=O (stereo partly shown) [Ta-2]	0.019	0.071	0.030	39.2%			Cell Uptake [7]: 0.090
Cc1cn([C@H]2CC(O)[C@@H](CO)O2)c(=O)n(CC(O)CF)c1=O (stereo partly shown) [Ta-10]	0.023	0.017	0.031	27.5%	Clear through the gut/renal system; localize moderately within the tumor	≤ 1 % ID/g	Ratio T/M ([5]; time not given): 0.35 (T/M); Incorporation into DNA [8]: substantially lower
Cc1cn([C@H]2CC(n3cc(CF)nn3)[C@@H](CO)O2)c(=O)[nH]c1=O (stereo partly shown) [FLT-Click-1]				6.1%	Clear very rapidly from the blood; localize mainly in the bladder		
Cc1cn([C@@H]2O[C@H](CO)C(O)C2F)c(=O)[nH]c1=O (stereo partly drawn) [FMAU, 1-(2′-deoxy-2′-[^18F]fluoro-β-D-arabinofuranosyl)-5-methyluracil, reference compound]	0.012	0.015	0.011	80%			Incorporation into DNA [8]: very high; Type of Clearance ([6]; known / literature (Sun et al. 2005 for FMAU; 11C label for thymidine)): Hepatobiliary clearance^c
Cc1cn([C@H]2CC(O)[C@@H](CO)O2)c(=O)n(CCCF)c1=O (stereo partly shown) [Ta-14]							Incorporation into DNA [8]: substantially lower
Cc1cn([C@H]2CC(O)[C@@H](CO)O2)c(=O)n(CCF)c1=O (stereo partly shown) [Ta-4, 3-N-(2′-[^18F]fluoroethyl)-thymidine]	0.172	0.142	0.218	77.4%	has less liver uptake than Ta-1, localizes more strongly within the A-431 based tumor and possesses a clearance mechanism similar to FLT; also recorded: Less liver uptake than Ta-1; localize more strongly within the A431 based tumor; possess a clearance mechanism similar to FLT	2-3.5 % ID/g	Ratio T/M ([5]; p.i. 50 min): 2.3 (T/M; p.i 50 min); Liver cell uptake [9]: less than Ta-1; Liver cell uptake [10]: less than Ta-1; Incorporation into DNA [8]: substantially lower; Uptake and intracellular retention [2]: favorably taken up and retained intracellularly; Uptake and intracellular retention [7]: favorably taken up and retained intracellularly; Uptake and intracellular retention [3]: favorably taken up and retained intracellularly
Cc1cn([C@H]2CC(O)[C@@H](CO)O2)c(=O)n(CCn2cc(CF)nn2)c1=O (stereo partly shown) [Ta-5]	0.068	0.051	0.072	10.2%			
Cc1cn([C@@H]2O[C@H](CO)C(O)C2O)c(=O)n(CCF)c1=O (stereo partly shown) [Ta-8]	0.052	0.018	0.097	18.2%	Clear through the renal system; localize moderately within the tumor	≤ 1 % ID/g	Ratio T/M ([5]; time not given): 0.99 (T/M)
Cc1cn([C@H]2CC(O)[C@@H](CO)O2)c(=O)n(Cc2cn(CCF)nn2)c1=O (stereo partly shown) [Ta-1]	0.045	0.042	0.081	65.6%	despite rapid gut clearance, a small percentage of the inject dose penetrated and localized within the tumor; also recorded: Clear through the gut/ hepatobiliary system; localize mainly in the gut; a small percentage of the inject dose penetrate and localize within the tumor	≤ 1 % ID/g	Ratio T/M ([5]; p.i. 50 min): 2.1 (T/M; p.i. 50 min); Uptake and intracellular retention [2]: favorably taken up and retained intracellularly; Cell Uptake [7]: 0.064; Uptake and intracellular retention [7]: favorably taken up and retained intracellularly; Uptake and intracellular retention [3]: favorably taken up and retained intracellularly
Cc1cn([C@@H]2O[C@H](CO)C(O)C2O)c(=O)n(CCF)c1=O (stereo partly shown) [Ta-11]	0.03	0.006	0.02	9.8%	Clear through the renal system; localize moderately within the tumor	≤ 1 % ID/g	Ratio T/M ([5]; time not given): 0.52 (T/M)
Cc1cn([C@H]2CC(F)[C@@H](CO)O2)c(=O)n(Cc2cn(CCF)nn2)c1=O (stereo partly shown) [FLT-Click-2]	0.003		0.080	4.5%	Clear through the gut/ hepatobiliary system; localize moderately within the tumor	≤ 1 % ID/g	Ratio T/B [5]: 1.75 (T/B; (p.i. 45 min)
Cc1cn([C@@H]2O[C@H](CO)C(O)C2F)c(=O)n(CCF)c1=O (stereo partly shown) [Ta-9]	0.027	0.009	0.014	1.4%			
Cc1cn([C@H]2CC(O)[C@@H](CO)O2)c(=O)n(Cc2cn(Cc3cccc(Br)c3)nn2)c1=O (stereo partly shown) [Ta-4D]				51.9%			
